# Results taken from patent US9675652B2, “Compositions and methods to relieve chronic diseases symptoms” (priority 2011, dated 2017).
# Tested on: Hep G2.2.15 cells
# Assay: Cell viability by MTT, Hep G2.2.15 cells
# Assay type: cell-based, human
# Method: The Hep G2.2.15 cells were seeded at 3×10^4 cells/well into 96-well culture plates and incubated at 37° C. in 5% CO2 overnight. After 3 to 4 days, the confluent cultures were cultured at 37° C. for another 3 to 5 days for HBV surface antigen (HBsAg) and HBV e-antigen (HBeAg) induction. Various concentrations of test articles including the positive control substance were then added during the 72 hrs induction period. The cultured media were harvested by centrifugation and the levels of HBsAg and HBeAg were analyzed with commercial enzyme-linked immunosorbant assay (ELISA) kits for HBsAg qualitative testing (General Biologicals Corp., SURASE B-96 (TMB)) and that for HBeAg qualitative testing (General Biologicals Corp., EASE BN-96 (TMB)), respectively. The activity expressed in terms of the efficiency of antigen secretion in percentage (hereinafter referred to as “relative activity”) was calculated with the equation Relative activity (%)=The ratio of the amount of antigen in the cultured medium with treatment to that without treatment×100.
# Cell viability was assayed by the MTT method.
structure (smiles),measurement,setting,value
"CC(C)(C)C(=O)OCOP(=O)(COCCn1cnc2c(N)ncnc21)OCOC(=O)C(C)(C)C [Adefovir, Adefovir dipivoxil]","MTT (+) drug/(−) drug (Ratio), cytotoxicity",0.2 uM,0.961
same,"MTT (+) drug/(−) drug (Ratio), cytotoxicity",1 uM,0.953
